From patent US20240294551A1 (AMGEN INC., priority 2022, published 2024)
pIC50: −log10 of the molar value. Like-named read-outs stand apart in the source and are kept apart here.

Tests used:
[1] = biological target: His-tagged KRAS G12D protein (Homo sapiens (Human), UniProt P01116, G12D); assay: KRAS G12D TR-FRET Assay; type: binding
In short: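 His-tagged KRAS G12D (diluted to 20 nM in pH 7.4 HEPES buffer with 10 mM MgCl2 and 10 μM GDP) was preincubated with titrated compound for 30 min at room temperature. Biotinylated KRPep-2d peptide (diluted to 20 nM) was then added for 1 h, and displacement was monitored by TR-FRET.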

[2] = biological target: GDP-bound KRAS protein (aa 1-169), containing both G12D and C118A amino acid substitutions (Homo sapiens (Human), UniProt P01116, C118A/G12D); assay: KRAS G12D Coupled Nucleotide Exchange Assay; type: biochemical
GDP-bound KRAS protein (aa 1-169), containing both G12D and C118A amino acid substitutions, sequence (P01116 other isoform, or with tags, fused parts or gaps G12D/C118A): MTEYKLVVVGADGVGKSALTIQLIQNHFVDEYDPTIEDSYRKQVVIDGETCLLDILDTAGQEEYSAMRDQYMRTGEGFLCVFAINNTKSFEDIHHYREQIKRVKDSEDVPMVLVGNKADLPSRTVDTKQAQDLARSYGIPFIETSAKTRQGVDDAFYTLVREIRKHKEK

[3] = tested on: Phosphorylation of ERK1/2 in AsPC-1 cells; assay: Phospho-ERK1/2 MSD Assay; type: cell-based, human; conditions: Homo sapiens, ASPC1, 2 h
Experimental: AsPC-1 (ATCC® CRL-1682™) cells were cultured in RPMI 1640 Medium (ThermoFisher Scientific 11875093) containing 10% fetal bovine serum (ThermoFisher Scientific 16000044) and 1× penicillin-streptomycin-glutamine (ThermoFisher Scientific 10378016). Sixteen hours prior to compound treatment, AsPC-1 cells were seeded in 96-well cell culture plates at a density of 25,000 cells/well and incubated at 37° C., 5% CO2. A compound dose-response titration was diluted in growth media, added to appropriate wells of a cell culture plate, and then incubated at 37° C., 5% CO2 for 2 hours. Following compound treatment, cells were washed with ice-cold Dulbecco's phosphate-buffered saline, no Ca^2+ or Mg^2+ (ThermoFisher Scientific 14190144), and then lysed in RIPA buffer (50 mM Tris-HCl pH 7.5, 1% Igepal, 0.5% sodium deoxycholate, 150 mM NaCl, and 0.5% sodium dodecyl sulfate) containing protease inhibitors (Roche 4693132001) and phosphatase inhibitors (Roche 4906837001). Phosphorylation of ERK1/2 in compound-treated lysates was assayed using Phospho-ERK1/2 Whole Cell Lysate kits (Meso Scale Discovery K151DWD) according to the manufacturer's protocol. Assay plates were read on a Meso Scale Discovery Sector Imager 6000, and data were analyzed using a 4-parameter logistic model to calculate IC50 values.

[4] = read-out: KRAS G12D Binding IC50
[5] = read-out: KRAS G12D Coupled Exchange IC50
[6] = read-out: 2 h p-ERK (AsPC-1 cells), IC50
[7] = TR-FRET, read-out: KRAS G12D Binding
[8] = 2 hours compound pre-incubation, read-out: KRAS G12D Coupled Exchange
[9] = read-out: 2 h p-ERK (AsPC-1 cells)

His-tagged KRAS G12D protein, sequence (P01116 other isoform, or with tags, fused parts or gaps G12D): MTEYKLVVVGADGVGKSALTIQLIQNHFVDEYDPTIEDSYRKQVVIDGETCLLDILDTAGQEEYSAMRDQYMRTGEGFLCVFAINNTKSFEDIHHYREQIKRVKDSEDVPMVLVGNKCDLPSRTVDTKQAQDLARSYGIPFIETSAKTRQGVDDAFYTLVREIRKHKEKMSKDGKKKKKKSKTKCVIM

pIC50 [1, 4]	pIC50 [2, 5]	pIC50 [3, 6]	pIC50 [1, 7]	pIC50 [2, 8]	pIC50 [3, 9]	SMILES	IC50 [2, 5]
8.22	8.40	7.37	–	–	–	Fc1c2ncc3c(nc(OC[C@@]45CCCN4C[C@H](F)C5)nc13)N1CCOC[C@]3(C1)C[C@@H](C3)OCCCCc1c(Cl)cc3[nH]ncc3c1-2 [Example 263, (1S,3S)-10-chloro-33-fluoro-24-(((2R,7aS)-2-fluorotetrahydro-1H-pyrrolo[1,2-a]pyrrol-7a(5H)-yl)methoxy)-4,30-dioxa-13,14,19,23,25,27-hexaazaheptacyclo[25.4.1.1~1,3~.1~18,22~.0~9,17~.0~12,16~.0~21,26~]tetratriaconta-9,11,14,16,18(33),19,21,23,25-nonaene]	–
7.89	7.96	6.50	–	–	–	Cc1cc2[nH]ncc2c2c1CCCOC(=O)O[C@@H]1CCCCN(C1)c1nc(OC[C@@H]3C[C@@H](F)CN3C)nc3c(F)c-2ncc13 [Example 92, (26R)-32-fluoro-4-(((2S,4R)-4-fluoro-1-methyl-2-pyrrolidinyl)methoxy)-18-methyl-23,25-dioxa-1,3,5,9,14,15-hexaazahexacyclo[24.4.1.1~6,10~.0~2,7~.0~11,19~.0~12,16~]dotriaconta-2,4,6,8,10(32),11,13,16,18-nonaen-24-one]	–
7.62	7.80	6.42	–	–	–	Cc1cc2[nH]ncc2c2c1CCOC(=O)O[C@H]1C[C@]3(CCCN(C3)c3nc(OC[C@@]45CCCN4C[C@H](F)C5)nc4cc-2nnc34)C1 [Example 358, (1R,3S)-24-(((2R,7aS)-2-fluorotetrahydro-1H-pyrrolo[1,2-a]pyrrol-7a(5H)-yl)methoxy)-10-methyl-4,6-dioxa-13,14,19,20,23,25,27-heptaazaheptacyclo[25.3.1.1~1,3~.1~18,22~.0~9,17~.0~12,16~.0~21,26~]tritriaconta-9,11,14,16,18(32),19,21,23,25-nonaen-5-one]	–
7.17	–	5.86	–	–	–	Cc1cc2[nH]ncc2c2c1CCCOC(=O)OC1CC[C@@H]3CC[C@H]1N3c1nc(OC[C@@]34CCCN3C[C@H](F)C4)nc3c(F)c-2ncc13 (racemic) [Example 96]	0.054 µM
–	–	–	8.10	8.40	7.18	Fc1c2ncc3c(nc(OC[C@@]45CCCN4C[C@H](F)C5)nc13)N1CCC[C@H](C1)c1cnc(o1)CCCc1c(Cl)cc3[nH]ncc3c1-2 [Example 387, (18R)-9-chloro-31-fluoro-25-(((2R,7aS)-2-fluorotetrahydro-1H-pyrrolo[1,2-a]pyrrol-7a(5H)-yl)methoxy)-33-oxa-5,6,15,22,24,26,30-heptaazaheptacyclo[25.3.1.1~14,17~.1~18,22~.0~2,10~.0~3,7~.0~23,28~]tritriaconta-1(31),2,4,7,9,14,16,23,25,27,29-undecaene]	–
7.62	7.85	6.41	–	–	–	Cc1cc2[nH]ncc2c2c1CCCCOC(=O)[C@@H]1CCCN(C1)c1nc(OC[C@@]34CCCN3C[C@H](F)C4)nc3c(F)c-2ncc13 [Example 108]	–
7.89	8.70	6.30	–	–	–	O=C1COCCc2c(Cl)cc3[nH]ncc3c2-c2ncc3c(nc(OC[C@@]45CCCN4C[C@H](F)C5)nc3c2F)N2CCCC[C@H](C2)N1 [Example 271, (26R)-18-chloro-32-fluoro-4-(((2R,7aS)-2-fluorotetrahydro-1H-pyrrolo[1,2-a]pyrrol-7a(5H)-yl)methoxy)-22-oxa-1,3,5,9,14,15,25-heptaazahexacyclo[24.4.1.1~6,10~.0~2,7~.0~11,19~.0~12,16~]dotriaconta-2,4,6,8,10(32),11,13,16,18-nonaen-24-one]	–
7.66	7.74	6.30	–	–	–	Cc1cc2[nH]ncc2c2c1C[C@@H](C)COC(=O)O[C@@H]1CCCN(C1)c1nc(OC[C@@]34CCCN3C[C@H](F)C4)nc3c(F)c-2ncc13 (single isomer, unassigned) [Example 214]	–
7.34	7.47	5.78	–	–	–	Cc1cc2[nH]ncc2c2c1CCCCC(=O)N[C@]1(C)COCCN(C1)c1nc(OC[C@@]34CCCN3C[C@H](F)C4)nc3c(F)c-2ncc13 (mixture of isomers) [Example 67]	–
8.00	8.05	7.11	–	–	–	Fc1c2ncc3c(nc(OC[C@@]45CCCN4C[C@H](F)C5)nc13)N1CCCC(C1)c1cnc(o1)CCCc1c(Cl)cc3[nH]ncc3c1-2 (stereo partly drawn) [Example 255]	–
7.09	7.82	5.90	–	–	–	CN1C(=O)OCCCc2c(Cl)cc3[nH]ncc3c2-c2ncc3c(nc(OC[C@@]45CCCN4C[C@H](F)C5)nc3c2F)N2C[C@@H](O)C[C@@H]1C2 [Example 286, (17R,19S)-9-chloro-30-fluoro-24-(((2R,7aS)-2-fluorotetrahydro-1H-pyrrolo[1,2-a]pyrrol-7a(5H)-yl)methoxy)-19-hydroxy-16-methyl-14-oxa-5,6,16,21,23,25,29-heptaazahexacyclo[24.3.1.1~17,21~.0~2,10~.0~3,7~.0~22,27~]hentriaconta-1(30),2,4,7,9,22,24,26,28-nonaen-15-one]	–
–	–	–	6.81	7.54	5.77	CC12CN(CCO1)c1nc(OC[C@@]34CCCN3C[C@H](F)C4)nc3c(F)c(ncc13)-c1c(c(Cl)cc3[nH]ncc13)CCCc1nc2co1 (mixture of isomers) [Example 380]	–
8.30	8.52	7.27	–	–	–	O=C1N[C@@H]2CN(C[C@@H]3C[C@@H]32)c2nc(OC[C@@]34CCCN3C[C@H](F)C4)nc3c(F)c(ncc23)-c2c(c(Cl)cc3[nH]ncc23)CCC[C@@H]1F [Example 174, (23S,26S,27S,29R)-18-chloro-23,32-difluoro-4-(((2R,7aS)-2-fluorotetrahydro-1H-pyrrolo[1,2-a]pyrrol-7a(5H)-yl)methoxy)-1,3,5,9,14,15,25-heptaazaheptacyclo[24.4.1.1~6,10~.0~2,7~.0~11,19~.0~12,16~.0~27,29~]dotriaconta-2,4,6,8,10(32), 11,13,16,18-nonaen-24-one]	–
7.62	7.64	6.38	–	–	–	O=C1CCCCc2c(C(F)(F)F)cc3[nH]ncc3c2-c2ncc3c(nc(OC[C@@]45CCCN4C[C@H](F)C5)nc3c2F)N2CCC[C@H](C2)O1 [Example 87, (17R)-30-fluoro-24-(((2R,7aS)-2-fluorotetrahydro-1H-pyrrolo[1,2-a]pyrrol-7a(5H)-yl)methoxy)-9-(trifluoromethyl)-16-oxa-5,6,21,23,25,29-hexaazahexacyclo[24.3.1.1~17,21~.0~2,10~.0~3,7~.0~22,27~]hentriaconta-1(30),2,4,7,9,22,24,26,28-nonaen-15-one]	–
8.00	8.30	6.45	–	–	–	Cc1cc2[nH]ncc2c2c1CCC[C@H](F)C(=O)N(C)[C@@H]1CCCN(C1)c1nc(OC[C@@]34CCCN3C[C@H](F)C4)nc3c(F)c-2ncc13 [Example 51, (14S,17R)-14,30-difluoro-24-(((2R,7aS)-2-fluorotetrahydro-1H-pyrrolo[1,2-a]pyrrol-7a(5H)-yl)methoxy)-9,16-dimethyl-5,6,16,21,23,25,29-heptaazahexacyclo[24.3.1.1~17,21~.0~2,10~.0~3,7~.0~22,27~]hentriaconta-1(30),2,4,7,9,22,24,26,28-nonaen-15-one]	–
7.03	7.15	5.87	–	–	–	Cc1cc2[nH]ncc2c2c1/C=C/COC(=O)O[C@@H]1CCCN(C1)c1nc(OC[C@@]34CCCN3C[C@H](F)C4)nc3c(F)c-2ncc13 [Example 101, (11E,17R)-30-fluoro-24-(((2R,7aS)-2-fluorotetrahydro-1H-pyrrolo[1,2-a]pyrrol-7a(5H)-yl)methoxy)-9-methyl-14,16-dioxa-5,6,21,23,25,29-hexaazahexacyclo[24.3.1.1~17,21~.0~2,10~.0~3,7~.0~22,27~]hentriaconta-1(30),2,4,7,9,11,22,24,26,28-decaen-15-one]	–

SMILES	pIC50 [1, 4]	pIC50 [2, 5]	pIC50 [3, 6]	pIC50 [1, 7]	pIC50 [2, 8]	pIC50 [3, 9]	IC50 [2, 5]
Cc1cc2[nH]ncc2c2c1CCCCC(=O)N[C@@H]1CCCN(C1)c1nc(OC[C@@]34CCCN3C[C@H](F)C4)nc3c(F)c-2ncc13.O=C(O)C(F)(F)F [Example 48, (17R)-30-fluoro-24-(((2R,7aS)-2-fluorotetrahydro-1H-pyrrolo[1,2-a]pyrrol-7a(5H)-yl)methoxy)-9-methyl-5,6,16,21,23,25,29-heptaazahexacyclo[24.3.1.1˜17,21˜.0˜2,10˜.0˜3,7˜.0˜22,27˜]hentriaconta-1(30),2,4,7,9,22,24,26,28-nonaen-15-one 2,2,2-trifluoroacetate]	7.85	–	6.03	–	–	–	0.013 µM
